Experimental data: patent US20120121591A1 (priority 2009, published 2012)
Read-outs that look alike come from different tables or passages of the source.

Experiments:
[1] = system: IFN-g secretion from T cells in human whole blood; assay type: cell-based
[2] = system: IL-2 secretion from T cells in human whole blood; assay type: cell-based; conditions: read-out: WB (IL-2) IC50 (nM, Avg)
[3] = read-out: WB (IFNg) IC50 (nM, Avg)

| SMILES | IC50 [1, 3] | IC50 [2] | IC50 ([1]; read-out: WB (IFNg) IC5- (nM, Avg)) |
| --- | --- | --- | --- |
| CC[C@H](C)[C@@H]1NC(=O)[C@@H](NC(=O)[C@H](CO)NC(=O)[C@@H](N)CCCNC(=N)N)CSSC[C@@H](C(=O)O)NC(=O)[C@H](CCCNC(=N)N)NC(=O)CNC(=O)[C@@H]2CSSC[C@@H]3NC(=O)[C@H](CCC(N)=O)NC(=O)[C@H](Cc4ccccc4)NC(=O)[C@H](C)NC(=O)[C@H]([C@@H](C)O)NC(=O)[C@H](CSSC[C@H](NC(=O)[C@H](Cc4ccccc4)NC(=O)[C@H](CO)NC(=O)[C@H](CC(C)C)NC(=O)[C@H](CCCNC(=N)N)NC(=O)[C@H](Cc4ccc(O)cc4)NC(=O)[C@H](CCCCN)NC(=O)[C@H](CCSC)NC(=O)[C@H](CO)NC(=O)[C@H](Cc4c[nH]cn4)NC(=O)[C@H](CCCCN)NC3=O)C(=O)N[C@@H](CCCNC(=N)N)C(=O)N[C@@H](CCCCN)C(=O)N[C@@H]([C@@H](C)O)C(=O)N2)NC(=O)[C@H](CCCNC(=N)N)NC(=O)[C@H](CO)NC(=O)[C@H](CCCCN)NC(=O)[C@@H]2CCCN2C(=O)[C@H]([C@@H](C)CC)NC(=O)[C@H]([C@@H](C)O)NC(=O)[C@H](CC(=O)O)NC1=O [[Arg34]ShK] | 0.486 nM | 0.418 nM | – |
| CC[C@H](C)[C@@H]1NC(=O)[C@@H](NC(=O)[C@H](CO)NC(=O)[C@@H](N)CCCNC(=N)N)CSSC[C@@H](C(=O)O)NC(=O)[C@H]([C@@H](C)O)NC(=O)CNC(=O)[C@@H]2CSSC[C@@H]3NC(=O)[C@H](CCC(N)=O)NC(=O)[C@H](Cc4ccccc4)NC(=O)[C@H](C)NC(=O)[C@H]([C@@H](C)O)NC(=O)[C@H](CSSC[C@H](NC(=O)[C@H](Cc4ccccc4)NC(=O)[C@H](CO)NC(=O)[C@H](CC(C)C)NC(=O)[C@H](CCCNC(=N)N)NC(=O)[C@H](Cc4ccc(O)cc4)NC(=O)[C@H](CCCCN)NC(=O)[C@H](CCSC)NC(=O)[C@H](CO)NC(=O)[C@H](Cc4c[nH]cn4)NC(=O)[C@H](CCCNC(=N)N)NC3=O)C(=O)N[C@@H](CCCNC(=N)N)C(=O)N[C@@H](CCCCN)C(=O)N[C@@H]([C@@H](C)O)C(=O)N2)NC(=O)[C@H](CCCNC(=N)N)NC(=O)[C@H](CO)NC(=O)[C@H](CCCCN)NC(=O)[C@@H]2CCCN2C(=O)[C@H]([C@@H](C)CC)NC(=O)[C@H]([C@@H](C)O)NC(=O)[C@H](CC(=O)O)NC1=O [[Arg18]ShK] | 0.023 nM | 0.012 nM | – |
| CC[C@H](C)[C@@H]1NC(=O)[C@@H](NC(=O)[C@H](CO)NC(=O)[C@@H](N)CCCNC(=N)N)CSSC[C@@H](C(=O)O)NC(=O)[C@H]([C@@H](C)O)NC(=O)CNC(=O)[C@@H]2CSSC[C@@H]3NC(=O)[C@H](CCC(N)=O)NC(=O)[C@H](Cc4ccccc4)NC(=O)[C@H](CCC(=O)O)NC(=O)[C@H]([C@@H](C)O)NC(=O)[C@H](CSSC[C@H](NC(=O)[C@H](Cc4ccccc4)NC(=O)[C@H](CO)NC(=O)[C@H](CC(C)C)NC(=O)[C@H](CCCNC(=N)N)NC(=O)[C@H](Cc4ccc(O)cc4)NC(=O)[C@H](CCCCN)NC(=O)[C@H](CCSC)NC(=O)[C@H](CO)NC(=O)[C@H](Cc4c[nH]cn4)NC(=O)[C@H](CCCCN)NC3=O)C(=O)N[C@@H](CCCNC(=N)N)C(=O)N[C@@H](CCCCN)C(=O)N[C@@H]([C@@H](C)O)C(=O)N2)NC(=O)[C@H](CCCNC(=N)N)NC(=O)[C@H](CO)NC(=O)[C@H](CCCCN)NC(=O)[C@@H]2CCCN2C(=O)[C@H]([C@@H](C)CC)NC(=O)[C@H]([C@@H](C)O)NC(=O)[C@H](CC(=O)O)NC1=O [[Glu14]ShK] | – | 0.035 nM | 0.132 nM |
